Entries after “also recorded” stand apart in the source; their conditions may differ.
What was measured:
hTERT = hTERT immunohistochemistry of xenograft tissue; type: in vivo, human; settings: RHPS4 treated UXF1138L xenograft
Description: (§1) Five-micrometer paraffin sections were cut, dewaxed, and antigen retrieval done in citrate buffer (pH 6.0) in the microwave for 30 minutes. Sections were then treated with methanol/3% hydrogen peroxide to remove endogenous peroxidase and blocked with 10% normal goat serum in PBS and stained. PBS was used as washing buffer. Cells were incubated overnight at 4° C. with a monoclonal anti-hTERT antibody (class IgG2a, kappa, Novacastra, Newcastle, UK) diluted 1:40 in PBS. Mouse immunoglobulin G2a isotype control (Santa Cruz) was used as negative control. hTERT-specific immunoperoxidase staining was developed using the DAKO Envision+ system (Envision 3,3V-diaminobenzidine Plus kit mouse, DAKO Cytomation). To enhance contrast, tissues were counterstained with hematoxylin. hTERT-specific staining intensity was documented using a Leica DM4000 microscope and digital camera. Sections were viewed and evaluated by two independent pathologists. Mean numbers of atypical mitoses were counted in control and treated tissues from 3 tumors (4 fields of 250 cells per tumor) for the 3 groups (Burger et al. 2005). Box plots were generated using SigmaPlot version 10 software and statistical significance between treatments calculated in SigmaPlot using the Student T-test.

UXF1138L tumors = test: atypical mitoses counted in xenograft sections; type: in vivo, nude mice
Description: Upon termination of the experiments, tumors from 3 mice per group were excised and immediately fixed in 10% PBS buffered formalin for 24 hours followed by routine paraffin embedding procedures (Burger et al. 2005).
as §1, with “To enhance contrast, tissues were counterstained with hematoxylin. hTERT-specific staining intensity was documented using a Leica DM4000 microscope and digital camera.” left out

[1] = tested on: human cord blood mononuclear cells; test: methylcellulose colony assay; type: cell-based
Description: The UXF1138L uterus carcinoma cell line was originally established from a patient tumor by Prof. Heiner Fiebig at the University of Freiburg, Germany (Fiebig and Burger, 2001). All animal experiments were conducted under an animal license approved by the German Federal Government (Regierungspräsidium Freiburg) and in compliance with the UKCCCR guidelines on experimental neoplasia (Workman et al., 1998). Six to eight weeks old female thymus aplastic nude mice of NMRI genetic background were used for establishment and serial propagation of the human tumor xenograft from the cell line. PC3 and MCF-7 cells were obtained from American Type Culture Collection, Manassas, Va. The HEK293T human embryonic kidney cell line was a kind gift from Dr. Arun Seth, Sunnybrook Health Sciences Centre, Toronto, CA. Umbellical vein cord blood was freshly obtained from a hospital maternity ward with the consent of the respective patient, specimens were anonymized. The cord blood was collected into a BD Vacutainer CPT™ and the mononuclear fraction isolated by centrifugation following the manufacturers instructions.
In human tumor stem cell assay (HTCA)/clonogenic assay, single cell suspensions from in vivo studies above were washed in medium and passed through sieves and the resulting single cell suspensions seeded into soft agar (n=3 tumors per group) as described by us before (Fiebig et al., 2004). Single cell suspensions of cell lines were prepared by trypsinization from cells growing as monolayers on plastic. Briefly, 5,000 (HEK293T cells), 10,000 (PC3, MCF-7 and UXF1138L cells) or 50,000 (UXF1138L tumor tissue) vital cells were added to 0.2 ml Iscove's medium/20% fetal bovine serum/0.05% gentamycin containing 0.4% agar and plated on top of a base layer consisting of 0.2 ml medium with 0.75% agar. The next day, the agar layers were fed with Isocve's medium and cultures incubated at 37° C., 7% CO2 for approximately 11 days. Vital colonies were stained with 2-(4-iodophenyl)-3-(4-nitrophenyl)-5-phenyltetrazolium chloride (1 mg/ml) 24 hrs before evaluation, and colonies >70 μm were counted with an automated image analysis system (Omincon FAS IV, BIOSYS GmbH, Karben, Germany). Drug effect was assessed as growth inhibitory concentrations 50 and 70% (IC50, IC70). Methylcellulose was used to grow cord blood stem cells instead of soft agar. The seeding density was 20,000 cells/well. Stem cell growth factor supplemented and optimized methylcellulose (Methocult H4434) was purchased from Stem Cell Technologies (Vancouver, CA). Methylcellulose lacking growth factors was used as negative growth control. Statistical significance between treatment groups was evaluated by using the Student T-test. […]

HEK293T cells = test: MTT proliferation assay (monolayer); type: cell-based, human
Description: To assess RHPS4 effects on normal stem cells, the human embryonic kidney cell line HEK293T was exposed to drug in the MTT and HTCA assays, and tested RHPS4 effects on colony forming units of the mononuclear cell fraction of human cord blood in methyl cellulose (FIG. 2C). The cord blood colony assay was performed with and without colony stimulating growth factors, only methylcellulose containing growth factors grew colonies. […] Additionally, in normal cell types as compared to tumor cells, low and pharmacodynamically relevant concentrations of RHPS4 (0.01 to 1 microM) did induce colony formation (FIG. 2C). To assure that the induction of colony growth by RHPS4 in normal stem cells is reproducible, cord blood from three different individuals and HEK293T cells from different passages were used. Data shown in FIG. 2C represent the mean and standard deviation from three independent experiments. […] However, the plating efficiency (actual number of colonies growing per total number of cells seeded) varied among the experiments and therefore the results are shown as % of control growth. E.g. HEK293T control colony growth ranged from a mean number of 54 to 463 colonies per well, but the least percentage (cut-off level) of growth induction by RHPS4 observed in either, the individual HEK293T or the cord blood experiments, was 150%. […]

Q: Which results are given for COS(=O)(=O)[O-].Cc1cc2c3c([n+](C)c4ccc(F)cc4c3c1)-c1cc(F)ccc1N2C [RHPS4, 3,11-difluoro-6,8,13-trimethyl-8H-quino[4,3,2-kl]acridinium methosulfate]?
A: nuclear hTERT expression in xenograft tissue (hTERT): loss of strong nuclear hTERT expression; mitotic abnormalities compared to vehicle control (UXF1138L tumors; 5 mg/kg/d p.o.): significant induction of mitotic abnormalities; also recorded: increase in mitotic abnormalities; atypical mitosis, mean number (UXF1138L tumors; UXF1138L tumors passage 4, control 0.35): 1.25±0.19; stimulation of growth, number of colonies compared to vehicle ([1]; 0.1 and 1 mircoM RHPS4, cord blood): doubling to tripling the number of colonies; RHPS4 concentrations that inhibited colony formation ([1]; cord blood cells): > 1 mircoM; drug concentration at which cell kill of normal stem cells was seen ([1]; cord blood colony forming units): ~10 mircoM; least percentage (cut-off level) of growth induction ([1]; individual cord blood experiments, % of control growth): ≥ 150%; bulk cell growth, % of control (HEK293T cells; 1 mircoM RHPS4, HEK293T monolayer): 60%; induction of growth in MTT assay (HEK293T cells; eight dose levels 0.001-50 mircoM): no induction of growth
